SMILES strings stand for the structures. Calls of active or inactive are those of the source. No cut-off for these calls is given here.

The record followed here is ChEMBL document CHEMBL2146405, “Isomalyngamide A, A-1 and their analogs suppress cancer cell migration in vitro” (Eur J Med Chem, 2011).

Data set [1] has as its target Integrin beta-1 (Homo sapiens) (UniProt P05556). As to the kind of experiment: Inhibition of beta1-integrin in human MDA-MB-231 cells assessed as FAK phosphorylation at Tyr576/Tyr577 after 2 hrs by Western blot analysis. The data set is classed as cell-based. A general note: In western blotting, separated proteins are transferred to a membrane and probed.
The target is the same in data set [2]. As to the kind of experiment: Inhibition of beta1-integrin in human MDA-MB-231 cells assessed as Akt phosphorylation at Ser473 after 2 hrs by Western blot analysis. The format is cell-based.
The target is the same in data set [3]. As to the kind of experiment: Inhibition of beta1-integrin in human MDA-MB-231 cells assessed as Akt protein level after 2 hrs by Western blot analysis. The data set is classed as cell-based.
Data set [4] shares this target. As to the kind of experiment: Inhibition of beta1-integrin in human MDA-MB-231 cells assessed as FAK protein level after 2 hrs by Western blot analysis. The data set is classed as cell-based.
For data set [5] the target is unchanged. As to the kind of experiment: Inhibition of beta1-integrin in human MDA-MB-231 cells after 2 hrs by Western blot analysis. The data set is classed as cell-based.
The species entered for another data set is Rattus norvegicus. As to the kind of experiment: Inhibition of rat liver alpha 2,3-sialyltransferase at 100 uM.
Data set [6] has as its system MCF7. As to the kind of experiment: Antiproliferative activity against human MCF7 cells at 20 uM after 48 hrs by MTT assay. The data set is classed as functional. Conditions: MCF7, 48 h. For orientation: Tetrazolium dyes change colour on reduction, which living cells bring about.
For data set [7], the system named is MDA-MB-231. As to the kind of experiment: Antiproliferative activity against human MDA-MB-231 cells at 20 uM after 48 hrs by MTT assay. The data set is classed as functional. Conditions: MDA-MB-231, 48 h.
The nature of data set [8]: Solubility of compound at 10 uM. The format is physicochemical.
The test system of data set [9] is MDA-MB-231. As to the kind of experiment: cells. To be noted: Homo sapiens, MDA-MB-231, 16 h.
Description: Antimetastatic activity in human MDA-MB-231 cells assessed as inhibition of serum-induced cellular migration after 16 hrs by Boyden chamber assay
The subject of data set [10] is MDA-MB-231. As to the kind of experiment: Antiproliferative activity against human MDA-MB-231 cells assessed as reduction in cell viability at 50 uM after 48 hrs by MTT assay. The data set is classed as functional, cell-based.
A short description of data set [11]: Inhibition of rat liver alpha 2,3-sialyltransferase.
In data set [12] the test system is MDA-MB-231. As to the kind of experiment: Antimetastatic activity in human MDA-MB-231 cells assessed as inhibition of serum-induced cellular migration at 150 nM after 24 hrs by wound healing assay. The format is functional, cell-based.
Data set [13] relates to MDA-MB-231. As to the kind of experiment: Antiproliferative activity against human MDA-MB-231 cells after 48 hrs by MTT assay. Conditions: MDA-MB-231, 48 h. The format is functional, cell-based.
Data set [14] relates to MDA-MB-231. As to the kind of experiment: Antimetastatic activity in human MDA-MB-231 cells assessed as inhibition of cell migration-associated wound closure at 150 nM after 24 hrs of scratching by wound-healing assay. The data set is classed as functional, cell-based.
Data set [15] relates to MCF7. As to the kind of experiment: Antiproliferative activity against human MCF7 cells after 48 hrs by MTT assay. Conditions: MCF7, 48 h. The data set is classed as functional, cell-based.

Sequence of Integrin beta-1 (Homo sapiens) (P05556 whole entry): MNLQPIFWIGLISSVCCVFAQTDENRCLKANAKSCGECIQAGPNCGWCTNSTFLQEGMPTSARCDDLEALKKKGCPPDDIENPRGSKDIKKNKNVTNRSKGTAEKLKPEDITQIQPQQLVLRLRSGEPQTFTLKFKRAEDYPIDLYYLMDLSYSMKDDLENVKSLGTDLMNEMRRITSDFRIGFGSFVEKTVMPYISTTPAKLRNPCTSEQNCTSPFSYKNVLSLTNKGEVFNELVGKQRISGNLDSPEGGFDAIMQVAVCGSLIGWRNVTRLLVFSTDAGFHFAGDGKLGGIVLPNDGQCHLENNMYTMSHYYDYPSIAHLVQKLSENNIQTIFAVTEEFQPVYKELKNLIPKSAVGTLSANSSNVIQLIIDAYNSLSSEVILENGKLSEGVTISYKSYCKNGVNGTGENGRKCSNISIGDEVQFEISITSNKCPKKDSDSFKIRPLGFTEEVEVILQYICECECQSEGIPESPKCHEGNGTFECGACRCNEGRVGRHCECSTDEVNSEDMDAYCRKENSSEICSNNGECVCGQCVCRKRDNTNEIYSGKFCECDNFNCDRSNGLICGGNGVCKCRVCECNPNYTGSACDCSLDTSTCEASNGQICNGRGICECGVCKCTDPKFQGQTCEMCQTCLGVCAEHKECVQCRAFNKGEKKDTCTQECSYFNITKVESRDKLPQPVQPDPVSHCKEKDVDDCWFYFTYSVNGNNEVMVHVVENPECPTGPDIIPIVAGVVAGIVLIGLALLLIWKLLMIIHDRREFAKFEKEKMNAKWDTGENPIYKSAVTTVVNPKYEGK

As usually defined, the inhibition is how much of the control response was suppressed. `CCCCCCCCCCCCCC(=O)NCCNC(=O)C(C)(C)C(=O)N1CC(=O)CC1=O`: the inhibition entry in data set [1], in data set [3], in data set [4] and in data set [5] was “Dose-dependent effect” throughout. Further, the inhibition result in data set [2] is “Active”.
With `COC1=CC(=O)NC1`, the inhibition entry in the data set filed under Rattus norvegicus is “inactive”. Also, the inhibition at 20 µM in the data set on MCF7 [6] was determined as 2%; with MDA-MB-231 [7], 3%.
As to `CCCCCCCCCCCCCC(=O)N1CC(OC)=CC1=O`, the solubility entry in [8] is listed as “Insoluble”.
As usually defined, the IC50 is the concentration that gives 50% inhibition. Consider `CCCCCCCCCCCCCC(=O)NCCNC(=O)C(C)(C)C(=O)NCC(=O)O`, for which the half-inhibitory concentration (IC50) with MDA-MB-231 [9] turned out to be 22.7 µM; in data set [11], 37 µM. The values for the inhibition at 20 µM with MCF7 [6] and in the data set on MDA-MB-231 [7] were 7% and 0%, respectively. The outcome with MDA-MB-231 [10] was inactive.
For `CCCCCCC[C@@H](C/C=C/CCC(=O)N(C)C/C(=C\Cl)C/C(=C\C(=O)N1CC(OC)=CC1=O)OC)OC` [ISOMALYNGAMIDE A], the outcome in the data set with MDA-MB-231 [12] and in the data set on MDA-MB-231 [14] was Active. In addition, the 50% inhibitory concentration (IC50) with MDA-MB-231 [13] turned out to be 2.8 µM; in the data set with MDA-MB-231 [9], 0.06 µM; with MCF7 [15], 4.6 µM; in data set [11], 77.2 µM.
